# Results reported in US10898476B2, “Heat shock proteins and cholesterol homeostasis” (Orphazyme A/S, priority 2016, dated 2021).
# What was measured:
# [1] = tested on: LXR targets such as ABCA1, FABP4 and GRAMD1A; experiment: RNA sequencing of LXR targets in macrophage foam cells; assay type: cell-based, human; settings: during cholesterol efflux; 4 blood donors; FIG. 5
# Description: FIG. 5 The effect of rHSP70 on transcript levels of selected LXR targets in primary human macrophage foam cells. Macrophage foam cells from 4 individual blood donors were incubated −/+rHSP70 during cholesterol efflux and RNAs were extracted. RNA sequencing was performed by Illumina NextSeq sequencer. RNASeq results were analysed using “Gene Set Enrichment Analysis”. Selected LXR pathway targets modulated by rHSP70 administration were plotted against their transcript count numbers. Front row: FABP4; middle row: GRAMD1A; back row: ABCA1.
# (§1) Effect of rHsp70 on the transcript and protein levels of LXR targets in primary human macrophage foam cellsMacrophage foam cells from 4 individual blood donors were incubated −/+rHSP70 during cholesterol efflux and RNAs were extracted. RNA sequencing was performed by Illumina NextSeq sequencer. RNASeq results were analysed using “Gene Set Enrichment Analysis”.
# ABCA1 [2] = experiment: ABCA1 mRNA levels by qRT-PCR in macrophage foam cells; assay type: cell-based, human; settings: during cholesterol loading and efflux; normalized to 18S mRNA; FIG. 2a
# Description: (§2) FIG. 2 Effect of rHsp70 on ABCA1 transcript and protein levels in primary human macrophage foam cells. Macrophages were loaded with acLDL followed by cholesterol efflux to complete medium in the absence or presence of rHSP70. (a) The ABCA1 mRNA levels were measured by qRT-PCR. Data are mean±SEM, n=6 blood donors with triplicate measurements. (b) Cells were harvested and equal amounts of protein separated by SDS-PAGE and analyzed by Western blotting using a polyclonal anti-ABCA1 antibody. ProAct staining was used as a loading control. Data are mean±SEM, n=7 blood donors.
# (§3) Cells were collected in PBS and centrifuged at 2000 rpm for 10 min at 4° C. Cell pellets were lysed in either RNA lysis buffer or in RIPA buffer containing protease inhibitors for transcript or protein analysis.
# Total RNA was isolated using NucleoSpin RNA isolation kit (Macherey-Nagel). 1.5 μg of total RNA was transcribed using SuperScript VILO cDNA synthesis kit (Invitrogen). abca1 primers Fwd 5′-[…], Rev 5′-[…] (Sigma) and 18S primers Fwd 5′-[…], Rev 5′-CCCCGCGAGCACAGA (Sigma) were used for qRT-PCR with Light Cycler 480 SYBER Green I Master Mix (Roche). Reaction mixtures were prepared according to the manufacturer's instructions. Reaction steps: 95° C. 15 min and 40 cycles of 95° C. 15 sec, 60° C. 30 sec and 72° C. 10 sec. […] Relative quantities of mRNAs were normalized to 18S mRNA.
# [3] = tested on: acid sphingomyelinase (ASMase); settings: via binding to bismonoacylglycerophosphate (BMP); Mahalka et al, 2014; cited from earlier work
# [4] = tested on: primary human macrophage foam cells; experiment: Cholesterol efflux from acLDL-loaded macrophage foam cells to complete medium, lipids by TLC; assay type: cell-based
# Description: FIG. 1 rHSP70 stimulates the removal of cholesterol from primary human macrophage foam cells. Differentiated human macrophages were loaded with acLDL (50 μg/mL) for 3 days. Cholesterol efflux was performed for 12 h to complete medium in the presence or absence of rHSP70 (20 ug/ml). Lipids were analyzed by TLC. Pooled data from 8 blood donors from 8 independent experiments and three technical replicates, mean±SEM.
# FIG. 3 The effect of rHsp70 dose and BMP binding on cholesterol efflux from primary human macrophage foam cells. Macrophages were loaded with acLDL followed by cholesterol efflux to complete medium in the absence or presence of rHSP70 as in FIG. 1. Either wild-type or W90F mutant (mut) rHsp70 was employed at the final concentrations of 20 or 200 μg/mL Pooled data from 2 individual donors with 3 technical replicates, mean±SEM.
# Human primary white blood cells, isolated from healthy blood donors were acquired form the Finnish Red Cross (permit number 21/2015). Peripheral blood mononuclear cells (PBMCs) were isolated by Ficoll layering (Boyum, A., 1964) with Ficoll-Paque Premium (GE Healthcare). […]
# Cells were harvested in 2% NaCl solution and lipids were extracted as described in Bligh and Dyer (1959). […] The TLC plate was charred and free cholesterol and cholesterol ester bands were quantitated using ImageJ. […]
# [5] = tested on: LXR targets (ABCA1, GRAMD1A, FABP4); experiment: Western blotting of LXR targets in macrophage foam cells; assay type: cell-based, human; settings: during cholesterol efflux; FIG. 6
# From the text: FIG. 6 The effect of rHSP70 on protein levels of selected LXR targets in primary human macrophage foam cells. Cells (as described for FIG. 5) were harvested and equal amounts of protein separated by SDS-PAGE and analyzed by Western blotting. Data are mean±SEM, n=7 blood donors. *: p<0.05; **: p<0.01. (a) ABCA1, (b) GRAMD1A, (c) FABP4.
# as §1
# ABCA1 [6] = experiment: ABCA1 protein levels by Western blotting in macrophage foam cells; assay type: cell-based, human; settings: during cholesterol loading and efflux; FIG. 2b
# Description: as §2, §3
# Protein lysates were cleared by centrifugation at 12000 rpm for 10 min at 4° C. Protein concentration was determined using the Bio-Rad protein assay kit. Equal amount of total protein was loaded on 8% SDS-polyacrylamide gel and Western blotting was performed using polyclonal anti-ABCA1 antibody (1:500, Novus Biologicals). The primary antibody was detected with anti-rabbit secondary antibody (1:2000, Sigma). The blots were developed using the Enhanced Chemiluminiscense kit (Amersham). Protein bands were normalized to Proact membrane stain (Amresco). Quantitation of protein bands was performed using ImageJ program.
# [7] = tested on: primary murine bone marrow macrophage foam cells; experiment: BODIPY-cholesterol efflux to 6% HDL enriched serum, confocal imaging; assay type: cell-based; settings: 24 h efflux to 6% HDL enriched serum; FIG. 4
# Description: FIG. 4 rHSP70 speeds up BODIPY-cholesterol efflux from primary murine macrophage foam cells. Primary murine bone marrow macrophage foam cells were incubated with BODIPYcholesteryl linoleate-LDL particles. Cholesterol efflux was performed for 24 h to 6% HDL enriched serum in the presence or absence of rHSP70. Images were taken using Leica SP8 scanning confocal microscope at the indicated time points. (a) Total cell BODIPY-cholesterol intensity changes were calculated using ImageJ and data normalized to 0 h. (b) Representative images of BODIPY-cholesterol intensity changes over time. n=60-100 cells/condition. *: p<0.05.
# rHSP70 speeds up BODIPY-cholesterol efflux from primarymurine macrophage foam cells. Primary murine bone marrow macrophage foam cells were incubated with BODIPYcholesteryl linoleate-LDL particles. Cholesterol efflux was performed for 24 h to 6% HDL enriched serum in the presence or absence of rHSP70.
substance,measurement,setting,value
"rHSP70: His-tagged recombinant wildtype Hsp70 supplied by Orphazyme ApS, Denmark",transcript levels of LXR targets,[1],major transcriptional re-programming
same,ABCA1 transcript level,ABCA1 [2],significant increase
same,activity of acid sphingomyelinase (ASMase),[3],stabilize and enhance
same,cholesterol removal (efflux) from foam cells,"[4]; 20 ug/ml, 16 h pretreatment during loading, then 12 h efflux to complete medium (RPMI, 10% FBS), FIG. 1, FIG. 3",significantly enhanced
same,whether a higher dosage improves the cholesterol efflux promoting effect,"[4]; 200 ug/ml compared with 20 ug/ml, before and during 12 h efflux, FIG. 3",found not to be the case
same,protein levels of LXR targets,[5],These changes can also be seen at the protein level
same,ABCA1 protein level,ABCA1 [6],significant increase
same,BODIPY-cholesterol efflux,[7],speeds up
